Reference: ChEMBL document CHEMBL5244272 (Eur J Med Chem, 2021)

Tests used:
Plasmodium berghei [1] = experiment: Antimalarial activity against Plasmodium berghei infected in sc dosed mouse; assay type: functional
Plasmodium falciparum [2] = experiment: Potency index, ratio of artemisinin IC50 to test compound IC50 for Plasmodium falciparum W2; assay type: functional
Plasmodium falciparum [3] = experiment: Potency index, ratio of artemisinin IC50 to test compound IC50 for Plasmodium falciparum D6; assay type: functional
Plasmodium falciparum [4] = experiment: Antimalarial activity against chloroquine-resistant Plasmodium falciparum K1; assay type: functional, organism-based
Plasmodium berghei [5] = experiment: Antimalarial activity against Plasmodium berghei infected in mouse; assay type: functional; details: Plasmodium berghei
Plasmodium falciparum [6] = experiment: Antimalarial activity against Plasmodium falciparum D10; assay type: functional, organism-based
Plasmodium falciparum [7] = experiment: Antimalarial activity against Plasmodium falciparum K1; assay type: functional, organism-based
Plasmodium falciparum [8] = experiment: Antimalarial activity against chloroquine-sensitive Plasmodium falciparum NF54; assay type: functional, organism-based
Plasmodium falciparum [9] = experiment: Antimalarial activity against Plasmodium falciparum Dd2; assay type: functional, organism-based
Plasmodium falciparum [10] = experiment: Antimalarial activity against Plasmodium falciparum NF54; assay type: functional, organism-based

With `Cc1ccc([C@@H]2O[C@@H]3O[C@]4(C)CC[C@H]5[C@H](C)CC[C@@H]([C@H]2C)[C@@]35OO4)o1` the ED50 (Plasmodium berghei [1]; Plasmodium berghei) was 0.9 mg/kg.

For `C[C@H]1[C@@H](CC(O)C(C)(C)C)O[C@@H]2O[C@]3(C)CC[C@H]4[C@H](C)CC[C@@H]1[C@@]24OO3` (stereo partly specified), the “Ratio IC50” value (Plasmodium falciparum [2]) was 6.8 and the “Ratio IC50” value (Plasmodium falciparum [3]) was 5.4.

With `CCC(O)C[C@H]1O[C@@H]2O[C@]3(C)CC[C@H]4[C@H](C)CC[C@@H]([C@H]1C)[C@@]24OO3` (stereo partly specified) the “Ratio IC50” value (Plasmodium falciparum [2]) was 4.8 and the “Ratio IC50” value (Plasmodium falciparum [3]) was 5.8.

For `C[C@@H]1CC[C@H]2[C@@H](C)C(=O)N(/C=C\C#N)[C@@H]3O[C@H]4CC[C@@H]1[C@@]23OO4`, the “Ratio IC50” value (Plasmodium falciparum [2]) was 1.7 and the “Ratio IC50” value (Plasmodium falciparum [3]) was 2.7.

`CC1(OCc2ccccc2)CCC2CC1OO[C@]2(/C=C\c1ccc(F)cc1)c1ccccc1` (stereo partly specified) was tested, and the IC50 (Plasmodium falciparum [4]) was 29 nM.

In the case of `COC(=O)/C=C/N1C(=O)[C@H](C)[C@@H]2CC[C@@H](C)[C@@H]3CC[C@]4(C)OO[C@]32[C@H]1O4`, the “Ratio IC50” value (Plasmodium falciparum [2]) is reported as 1.2 and the “Ratio IC50” value (Plasmodium falciparum [3]) is reported as 2.

For `CC(=O)CN1C(=O)[C@H](C)[C@@H]2CC[C@@H](C)[C@@H]3CC[C@]4(C)OO[C@]32[C@H]1O4`, the “Ratio IC50” value (Plasmodium falciparum [2]) was 3 and the “Ratio IC50” value (Plasmodium falciparum [3]) was 3.2.

`CCCCCC[C@H]1C(=O)O[C@@H]2O[C@]3(C)CC[C@H]4[C@H](C)CC[C@@H]1[C@@]24OO3` was tested, and the IC100 (Plasmodium berghei [1]) was 8 mg/kg/day.

In the case of `CC1(OCc2ccccc2)CCC2CC1OO[C@]2(/C=C\c1ccc(Cl)cc1)c1ccccc1` (stereo partly specified), the IC50 (Plasmodium falciparum [4]) is reported as 23 nM.

`COC(=O)CC[C@@H](C)[C@H]1CC[C@H]2[C@@H]3CC[C@@H]4CC5(CC[C@]4(C)[C@H]3C[C@H](OC(C)=O)[C@]12C)OOC(C)(C(F)(F)F)O5` (stereo partly specified) gave an IC50 (Plasmodium falciparum [4]) of over 231 nM.

`C[C@H]1[C@@H](CCOCc2ccccc2F)O[C@@H]2O[C@]3(C)CC[C@H]4[C@H](C)CC[C@@H]1[C@@]24OO3` gave an ED50 (Plasmodium berghei [5]) of 5.08 mg/kg.

For `C[C@@H]1CC[C@H]2[C@@H](C)C(=O)N(CC(=O)c3ccccc3)[C@@H]3O[C@]4(C)CC[C@@H]1[C@@]23OO4`, the “Ratio IC50” value (Plasmodium falciparum [2]) was 1.8 and the “Ratio IC50” value (Plasmodium falciparum [3]) was 1.8.

In the case of `C[C@H]1[C@@H](OCc2ccc(C(=O)N(CCNc3ccnc4cc(Cl)ccc34)CC(=O)NC3CCCCC3)cc2)O[C@@H]2O[C@]3(C)CC[C@H]4[C@H](C)CC[C@@H]1[C@@]24OO3`, the IC50 (Plasmodium falciparum [6]) is reported as 26 nM and the IC50 (Plasmodium falciparum [7]) is reported as 23 nM.

With `C[C@H]1[C@@H](OCc2ccc(C(=O)N(CCCNc3ccnc4cc(Cl)ccc34)CC(=O)NC3CCCCC3)cc2)O[C@@H]2O[C@]3(C)CC[C@H]4[C@H](C)CC[C@@H]1[C@@]24OO3` the IC50 (Plasmodium falciparum [6]) was 35 nM and the IC50 (Plasmodium falciparum [7]) was 21 nM.

`C[C@H]1[C@H](OC(=O)c2ccc([N+](=O)[O-])cc2)O[C@@H]2O[C@@]3(C)CC[C@H]4[C@H](C)CC[C@@H]1[C@@]24OO3` gave an IC50 (Plasmodium falciparum [8]) of 8.54 nM.

`C[C@H]1[C@H](N2CCN(C(=O)Nc3ccc(F)cc3)CC2)O[C@@H]2O[C@]3(C)CC[C@H]4[C@H](C)CC[C@@H]1[C@@]24OO3` showed an IC50 (Plasmodium falciparum [9]) of 9.2 nM, an IC50 (Plasmodium falciparum [10]) of 1.21 nM and an IC50 (Plasmodium falciparum [7]) of 0.85 nM.

For `C[C@H]1[C@H](N2CCN(C(=O)c3ccc(C(F)(F)F)cc3)CC2)O[C@@H]2O[C@]3(C)CC[C@H]4[C@H](C)CC[C@@H]1[C@@]24OO3`, the IC50 (Plasmodium falciparum [9]) was 13.2 nM, the IC50 (Plasmodium falciparum [10]) was 0.49 nM and the IC50 (Plasmodium falciparum [7]) was 3.5 nM.

`C[C@H]1[C@H](OC(=O)c2cccc([N+](=O)[O-])c2)O[C@@H]2O[C@]3(C)CC[C@H]4[C@H](C)CC[C@@H]1[C@@]24OO3` showed an IC50 (Plasmodium falciparum [8]) of 10.6 nM.

With `C[C@H]1[C@@H](Oc2ccc(C(F)(F)F)cc2)O[C@@H]2O[C@]3(C)CC[C@H]4[C@H](C)CC[C@@H]1[C@@]24OO3` the ED50 (Plasmodium berghei [5]) was 2.12 mg/kg.

In the case of `COC(=O)CC[C@@H](C)[C@H]1CC[C@H]2[C@@H]3CC[C@@H]4CC5(CC[C@]4(C)[C@H]3C[C@H](OC(C)=O)[C@]12C)OOC(c1ccccc1)(C(F)(F)F)O5` (stereo partly specified), the IC50 (Plasmodium falciparum [4]) is reported as over 231 nM.

In the case of `CC(=O)/C=C/N1C(=O)[C@H](C)[C@@H]2CC[C@@H](C)[C@@H]3CC[C@]4(C)OO[C@]32[C@H]1O4`, the “Ratio IC50” value (Plasmodium falciparum [2]) is reported as 1.25 and the “Ratio IC50” value (Plasmodium falciparum [3]) is reported as 2.54.

Work on `C[C@H]1[C@H](N2CCN(C(=O)Nc3ccccc3)CC2)O[C@@H]2O[C@]3(C)CC[C@H]4[C@H](C)CC[C@@H]1[C@@]24OO3` yielded an IC50 (Plasmodium falciparum [9]) of 7.5 nM and an IC50 (Plasmodium falciparum [10]) of 1.3 nM.
